# Paper PMC7778589, “Photosensitizer-based multimodal PSMA-targeting ligands for intraoperative detection of prostate cancer” (Theranostics, 2021)
# Tests used:
# [1] = biological target: T1, PSMA-expressing LS174T-PSMA cells (Homo sapiens, UniProt Q04609); test: Competitive binding assay (IC50); details: on ice 2 h
# T1 construct: expressed in transfected cells; host or cells: LS174T colon carcinoma cells (human), stably transfected with pcDNA3.1-hPSMA
# Description: (§1) Binding and internalization characteristics of all ligands were compared using LS174T-PSMA and wildtype LS174T cells. Cells were cultured to confluency in 6-wells plates followed by incubation at 37 °C for 2 h in 1 ml binding buffer (RPMI/0.5% BSA) with 50,000 counts per minute (cpm) of ^111In-labeled ligand (0.1-0.25 pmol/well). Nonspecific binding was determined by coincubation with 2-(phosphonomethyl)pentane-1,5-dioic acid (2-PMPA, 21.57 µM). PSMA-specific binding was defined as nonspecific binding subtracted from total binding. To retrieve the membrane-bound fraction, cells were washed with PBS twice and incubated with acid buffer (0.1 M acetic acid, 154 mM NaCl, pH 2.6) for 10 minutes at 0 °C. […] Membrane-bound activity and intercellular activity fractions were measured in a gamma-counter (2480 WIZARD^2 Automatic Gamma Counter, PerkinElmer), [25]. […] Stability was evaluated by RP-HPLC analysis after 2 h of incubation at 37 °C. […]
# (§2) Scatchard analysis was performed to determine the dissociation constant (Kd) of the N064 ligand. […] Non-specific binding was determined by coincubation with 1 µM PSMA-617. […] Cell lysis was collected from the plate and the cell-associated activity was measured in a γ-counter. […] To determine PSMA antigen density per cell and the Kd of multimodal ligands, data were analyzed by linear regression using GraphPad Prism software. […]
# [2] = biological target: T2, LS174T-PSMA-positive cells (Homo sapiens, UniProt Q04609); test: Scatchard analysis (Kd); type: binding; details: on ice 4 h
# T2 construct: expressed in transfected cells; host or cells: LS174T colon carcinoma cells (human), stably transfected with pcDNA3.1-hPSMA
# Description: as §1, §2
# [3] = tested on: LS174T-PSMA and LS174T xenografts; test: Biodistribution of 111In-labeled multimodal ligands; type: in vivo, BALB/c nude mice; details: 0.3 nmol, 2 h p.i.
# Description: Animal experiments were performed in 8-10 weeks old male BALB/c nude mice (Janvier). Animals were housed in individually ventilated cages (Blue line IVC, 4-5 mice per cage) under nonsterile standard conditions with cage enrichment present and free access to chlorophyll-free animal chow (Sniff GmbH) and water. Mice were subcutaneously inoculated with 3.0 x 10^6 LS174T-PSMA cells in the left flank and 1.5 × 10^6 LS174T cells in the right flank, diluted in 200 μL of complete RPMI 1640 medium. Eleven days after tumor cell inoculation when xenografts were approximately 0.1 cm^3, tracers were injected intravenously via the tail vein. The researchers were not blinded for the experimental groups and tumor-bearing mice were block-randomized into groups based on tumor size. All experiments were approved by the institutional Animal Welfare Committee of the Radboud university medical center and were conducted in accordance to the guidelines of the Revised Dutch Act on Animal Experimentation.
# Mice were injected intravenously with 10 MBq ^111In-labeled PSMA ligands (0.3 nmol, molar activity 33.3 MBq/nmol) in PBS/0.5% BSA. Two hours post injection, mice were euthanized by CO2/O2-asphyxation and images were acquired with the IVIS fluorescence imaging system (Xenogen VivoVision IVIS Lumina II, Caliper Life Sciences), using an acquisition time of 10 s. Subsequently, µSPECT/CT images were acquired (U-SPECT II, MILabs) with a 1.0 mm diameter pinhole mouse collimator tube [26]. Mice were scanned for 30 min followed by a CT scan (spatial resolution 160 μm, 65 kV, 615 μA) for anatomical reference. µSPECT/CT scans were reconstructed with MILabs reconstruction software, using an ordered-subset expectation maximization algorithm, energy windows 154 - 188 keV and 220-270 keV, 3 iterations, 16 subsets, voxel size of 0.4 mm. SPECT/CT scans were analyzed and maximum intensity projections (MIPs) were created using the Inveon Research Workplace software version 4.1 (Siemens Preclinical Solutions). NIRF images were analyzed using Living Image software version 4.2 (Caliper Life Sciences). Tissues of interest were dissected, weighed and measured for radioactivity in a gamma-counter as described above. In the fluorescence-guided surgery feasibility study, pre-operative imaging was performed to visualize tumor tissue. After white light resection, NIRF imaging was repeated to assess if any remaining tumor was present.
# [4] = Lipophilicity, PBS/n-octanol; type: physicochemical; details: radiolabeled ligand
# Description: Tubes were vortexed vigorously for 1 min and centrifuged for 5 min at 201×g for phase separation. The concentration of radioactivity in a defined volume of each layer was measured in a well-type gamma-counter.
# [5] = biological target: T3, PSMA-expressing LS174T cells (LS174T-PSMA) (Homo sapiens, UniProt Q04609); test: Binding and internalization assay with 111In-labeled ligands; type: cell-based; details: 2 h 37 °C
# T3 construct: expressed in transfected cells; host or cells: LS174T colon carcinoma cells (human), stably transfected with pcDNA3.1-hPSMA
# Description: Cell lines were purchased from the American Type Culture Collection. LS174T colon carcinoma cells were stably transfected with human PSMA using the plasmid pcDNA3.1-hPSMA and cultured in RPMI 1640 medium supplemented with 2 mM glutamine, 10% FCS, and 0.3 mg/ml G418 at 37 °C in a humidified atmosphere with 5% CO2 [5].
# Binding and internalization characteristics of all ligands were compared using LS174T-PSMA and wildtype LS174T cells. Cells were cultured to confluency in 6-wells plates followed by incubation at 37 °C for 2 h in 1 ml binding buffer (RPMI/0.5% BSA) with 50,000 counts per minute (cpm) of ^111In-labeled ligand (0.1-0.25 pmol/well). Nonspecific binding was determined by coincubation with 2-(phosphonomethyl)pentane-1,5-dioic acid (2-PMPA, 21.57 µM). PSMA-specific binding was defined as nonspecific binding subtracted from total binding. To retrieve the membrane-bound fraction, cells were washed with PBS twice and incubated with acid buffer (0.1 M acetic acid, 154 mM NaCl, pH 2.6) for 10 minutes at 0 °C. After incubation, the membrane bound fraction (in acid buffer) was collected, cells were washed, lysed with 0.1 M NaOH and cell lysis (intercellular activity) was collected. Membrane-bound activity and intercellular activity fractions were measured in a gamma-counter (2480 WIZARD^2 Automatic Gamma Counter, PerkinElmer), [25]. Human serum was used to determine the in vitro serum stability of the multimodal ligands (0.8 µg/ml serum, 5 MBq/μg labeling). After incubation for 2 h at 37°C, serum proteins were precipitated by adding a 1:1 (v/v) volume of acetonitrile followed by 5 min of centrifugation at 3220×g. Stability was evaluated by RP-HPLC analysis after 2 h of incubation at 37 °C. […] Experimental details are described in the supplementary materials and methods.
# In vitro serum stability = type: in vitro ADME, human; details: 2 h, 37°C, RP-HPLC
# Description: Binding and internalization characteristics of all ligands were compared using LS174T-PSMA and wildtype LS174T cells. Cells were cultured to confluency in 6-wells plates followed by incubation at 37 °C for 2 h in 1 ml binding buffer (RPMI/0.5% BSA) with 50,000 counts per minute (cpm) of ^111In-labeled ligand (0.1-0.25 pmol/well). Nonspecific binding was determined by coincubation with 2-(phosphonomethyl)pentane-1,5-dioic acid (2-PMPA, 21.57 µM). PSMA-specific binding was defined as nonspecific binding subtracted from total binding. To retrieve the membrane-bound fraction, cells were washed with PBS twice and incubated with acid buffer (0.1 M acetic acid, 154 mM NaCl, pH 2.6) for 10 minutes at 0 °C. After incubation, the membrane bound fraction (in acid buffer) was collected, cells were washed, lysed with 0.1 M NaOH and cell lysis (intercellular activity) was collected. Membrane-bound activity and intercellular activity fractions were measured in a gamma-counter (2480 WIZARD^2 Automatic Gamma Counter, PerkinElmer), [25]. Human serum was used to determine the in vitro serum stability of the multimodal ligands (0.8 µg/ml serum, 5 MBq/μg labeling). After incubation for 2 h at 37°C, serum proteins were precipitated by adding a 1:1 (v/v) volume of acetonitrile followed by 5 min of centrifugation at 3220×g. Stability was evaluated by RP-HPLC analysis after 2 h of incubation at 37 °C. […]
# T3 sequence (Q04609 whole entry): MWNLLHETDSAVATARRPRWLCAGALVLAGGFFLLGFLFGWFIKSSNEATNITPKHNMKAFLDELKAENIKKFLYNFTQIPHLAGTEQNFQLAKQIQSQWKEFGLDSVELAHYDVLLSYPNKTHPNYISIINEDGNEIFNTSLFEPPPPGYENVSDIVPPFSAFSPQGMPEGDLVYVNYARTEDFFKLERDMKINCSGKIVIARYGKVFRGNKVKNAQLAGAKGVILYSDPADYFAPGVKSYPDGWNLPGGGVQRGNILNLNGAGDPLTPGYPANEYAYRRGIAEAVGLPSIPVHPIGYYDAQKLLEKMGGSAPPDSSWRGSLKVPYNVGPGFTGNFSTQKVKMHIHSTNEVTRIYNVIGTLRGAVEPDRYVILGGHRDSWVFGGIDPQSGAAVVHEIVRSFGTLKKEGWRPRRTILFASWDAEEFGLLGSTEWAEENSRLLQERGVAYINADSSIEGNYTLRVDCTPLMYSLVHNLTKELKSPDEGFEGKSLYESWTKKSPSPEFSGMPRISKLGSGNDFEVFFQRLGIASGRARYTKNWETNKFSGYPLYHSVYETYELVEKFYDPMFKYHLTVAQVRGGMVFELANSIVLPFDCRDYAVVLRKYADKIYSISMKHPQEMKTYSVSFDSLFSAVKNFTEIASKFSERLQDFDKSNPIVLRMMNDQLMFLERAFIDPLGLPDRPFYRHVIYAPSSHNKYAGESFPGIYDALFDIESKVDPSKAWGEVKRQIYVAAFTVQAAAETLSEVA
# T2 sequence (Q04609 whole entry): as above
# T1 sequence (Q04609 whole entry): as above
SMILES,Adrenals [3] [%ID/g],Blood [3] [%ID/g],Bone [3] [%ID/g],Bone marrow [3] [%ID/g],Duodenum [3] [%ID/g],Heart [3] [%ID/g],Kidney [3] [%ID/g],Liver [3] [%ID/g],Lung [3] [%ID/g],Muscle [3] [%ID/g],Pancreas [3] [%ID/g],Prostate [3] [%ID/g],Salivary glands [3] [%ID/g],Spleen [3] [%ID/g],Stomach [3] [%ID/g],Tumor- LS174T [3] [%ID/g],Tumor/Blood ratio [3],Tumor/Kidney ratio [3],Tumor/Liver ratio [3],Tumor/Muscle ratio [3],other results
O=C(O)CC[C@H](NC(=O)N[C@@H](CCCCNC(=O)[C@H](Cc1ccc2ccccc2c1)NC(=O)[C@H]1CC[C@H](CNC(=O)CN2CCN(CC(=O)O)CCN(CC(=O)O)CCN(CC(=O)O)CC2)CC1)C(=O)O)C(=O)O [PSMA-617],,,,,,,,,,,,,,,,,,,,,IC50 [1]: 0.0527 µM; Kd [2]: 0.015 ± 0.0011 µM
C[Si](C)(CCC[N+](CCCS(=O)(=O)O)(CCCS(=O)(=O)O)CCCS(=O)(=O)O)O[Si-2]123(O[Si](C)(C)CCC[N+](CCCS(=O)(=O)O)(CCCS(=O)(=O)O)CCCS(=O)(=O)O)n4c5c6ccccc6c4N=C4c6cccc(OCCCOC(=O)NCCCCCC(=O)NCCCC[C@H](NC(=O)CCC(C(=O)O)N7CCN(CC(=O)O)CCN(CC(=O)O)CCN(CC(=O)O)CC7)C(=O)N[C@@H](CCC(=O)O)C(=O)N[C@@H](CCC(=O)O)C(=O)N[C@@H](CCC(=O)O)C(=O)NCCCCCC(=O)NCCCC[C@H](NC(=O)N[C@@H](CCC(=O)O)C(=O)O)C(=O)O)c6C(=[N+]41)N=c1c4ccccc4c(n12)=NC1=[N+]3C(=N5)c2ccccc21.[Na+].[Na+].[Na+].[Na+] (some centres unmarked) [N143],2.5,0.3,1.2,0.4,0.6,0.5,112.8,1 ± 0.2,0.7,0.3,0.4,1.4,0.6,3.1 ± 1,0.5,0.5,56,0.2,15.2,72.3,Tumor/Negative tumor ratio [3]: 36.7; Tumor/Prostate ratio [3]: 32.9; Tumor/Salivary gland ratio [3]: 28.8; Tumor/Spleen ratio [3]: 5.2; LogD [4]: -2.4 ± 0.10; Internalized fraction [5]: 3.6 ± 0.22; Membrane bound fraction [5]: 0.5 ± 0.20
C[Si](C)(CCC[N+](CCCS(=O)(=O)O)(CCCS(=O)(=O)O)CCCS(=O)(=O)O)O[Si-2]123(O[Si](C)(C)CCC[N+](CCCS(=O)(=O)O)(CCCS(=O)(=O)O)CCCS(=O)(=O)O)n4c5c6ccccc6c4N=C4c6cccc(OCCCOC(=O)NCCCCCC(=O)NCCCC[C@H](NC(=O)CCC(C(=O)O)N7CCN(CC(=O)O)CCN(CC(=O)O)CCN(CC(=O)O)CC7)C(=O)N[C@H](Cc7ccccc7)C(=O)NCCCCCC(=O)NCCCC[C@H](NC(=O)N[C@@H](CCC(=O)O)C(=O)O)C(=O)O)c6C(=[N+]41)N=c1c4ccccc4c(n12)=NC1=[N+]3C(=N5)c2ccccc21.[Na+].[Na+].[Na+].[Na+] (some centres unmarked) [N046],1.2,0.7,0.4,0.2,0.3,0.3,31.9,0.8,0.4,0.2,0.2,0.9,0.4,1.1,0.3,0.4,14.9,0.2,6.1,39.3,Tumor+ LS174T-PSMA [3]: 4.3 %ID/g; Tumor/Negative tumor ratio [3]: 10.8; Tumor/Prostate ratio [3]: 10.7; Tumor/Salivary gland ratio [3]: 12.5; Tumor/Spleen ratio [3]: 4.4 ± 1; LogD [4]: -2.4 ± 0.03; Internalized fraction [5]: 2.0 ± 0.39; Membrane bound fraction [5]: 0.8 ± 0.06
C[Si](C)(CCC[N+](CCCS(=O)(=O)O)(CCCS(=O)(=O)O)CCCS(=O)(=O)O)O[Si-2]123(O[Si](C)(C)CCC[N+](CCCS(=O)(=O)O)(CCCS(=O)(=O)O)CCCS(=O)(=O)O)n4c5c6ccccc6c4N=C4c6cccc(OCCCOC(=O)NCCCCCC(=O)NCCCC[C@H](NC(=O)CCC(C(=O)O)N7CCN(CC(=O)O)CCN(CC(=O)O)CCN(CC(=O)O)CC7)C(=O)NCCOCCOCCOCCOCCC(=O)N[C@H](Cc7ccccc7)C(=O)N[C@@H](CCC(=O)O)C(=O)N[C@@H](CCC(=O)O)C(=O)NCCCCCC(=O)NCCCC[C@H](NC(=O)N[C@@H](CCC(=O)O)C(=O)O)C(=O)O)c6C(=[N+]41)N=c1c4ccccc4c(n12)=NC1=[N+]3C(=N5)c2ccccc21.[Na+].[Na+].[Na+].[Na+] (some centres unmarked) [N111],0.9,0.2,0.3,0.3,0.2,0.3,59,0.5,0.4,0.1,0.2,0.5,0.4,1.3,0.3,0.4,41.1,0.2,13.7,71.9,Stability in human serum (In vitro serum stability): stable; Tumor+ LS174T-PSMA [3]: 6.5 %ID/g; Tumor/Negative tumor ratio [3]: 24.1; Tumor/Prostate ratio [3]: 17.2; Tumor/Salivary gland ratio [3]: 21.5; Tumor/Spleen ratio [3]: 5.7; LogD [4]: -2.4 ± 0.15; Internalized fraction [5]: 0.9 ± 0.06; Membrane bound fraction [5]: 0.4 ± 0.05
